Laboratory results published in patent US20140294991A1, “MEDICAMENT FOR TREATING ANTERIOR EYE DISEASE COMPRISING REBAMIPIDE AND A TEAR-RETAINING AGENT” (OTSUKA PHARMACEUTICAL CO., LTD., priority 2011, published 2014).

Tested on: tear deficient rat model
Experiment: Tear volume by Schirmer's test in capsaicin-induced tear deficient rat model
Assay type: in vivo, Wister/ST rat
Conditions: Pharmacological Experiment 3; repeated administration test; compared with non-treated group (FIG. 5)
Protocol: To evaluate the utility of a combination of rebamipide and a tear-retaining agent or an artificial tear, rebamipide and sodium hyaluronate were administrated in combination to a tear deficient rat model, and the tear volume was measured and the corneal epithelial damage was evaluated. The tests were carried out in single administration and repeated administration.
Capsaicin (50 mg/kg) was administered to a 4-day-old Wister/ST rat, and 4 weeks later the rat was used as a tear deficient rat model.
For the single administration test, 5 μl of each drug solution for one eye was topically administrated to the rats of the “2% rebamipide-treated” group, “0.1% sodium hyaluronate-treated” group, and “2% rebamipide+0.1% sodium hyaluronate-treated” group. For the combination administration, 0.1% sodium hyaluronate was administrated 5 minutes after the administration of 2% rebamipide.
For the repeated administration test, 5 μl of each drug solution for one eye was topically administrated to the rats of the “2% rebamipide-treated” group (4 times/day), “0.1% sodium hyaluronate-treated” group (6 times/day), and “2% rebamipide (4 times/day)+0.1% sodium hyaluronate (6 times/day)-treated” group. […]
The tear volumes were measured as an index of a tear-retention capacity by Schirmer's test.

Question: `O=C(NC(Cc1cc(=O)[nH]c2ccccc12)C(=O)O)c1ccc(Cl)cc1` (stereo not shown) [rebamipide, 2-(4-chlorobenzoylamino)-3-[2(1H)-quinolin-4-yl]propionic acid] was tested. Which “tear volume (tear-retention capacity)” value did it give?
Answer: Its value is “significantly higher”.
